The subject of one assay is S. aureus (CCUG 1800). Description: Minimal microbicidal concentration (MMC99) assay, S. aureus. The conditions noted are these: 2 hours; for MMC99 μM in 50% SWF: 50% heat inactivated simulated wound fluid. It is filed as cell-based. How it is done:
Antimicrobial Activity was Measured as Bactericidal Effect on S. aureus Using Minimal Microbicidal Concentration, MMC99, Assay)
S. aureus (#1800; CCUG, Gothenburg, Sweden) cultured on blood-agar plates [Columbia agar (Oxoid, Basingstoke, UK) supplemented with 5% defibrinated horse blood (National Veterinary Institute (SVA), Uppsala, Sweden)] were transferred to brain heart infusion broth (3.7% BHI; Difco, BD Diagnostics, Franklin Lakes, N.J., USA) and incubated in a shaker at 250 rpm+37° C. over night. The culture was thereafter be diluted 1:10 in fresh BHI broth and incubated for additional two hours to reach log-phase growth. The bacteria were pelleted and suspended in 1% BHI medium (BHI broth diluted 100 times in ultra-pure water) to a concentration of 10^7 bacteria/ml as estimated by measuring optical density at 600 nm. Peptides were serially diluted by two-fold steps from 160 μM to 1.25 μM in 1% BHI medium. The peptides (100 μl) were thereafter incubated with bacteria (5 μl á 10^7 bact./ml) for 2 hours at +37° C. Drops (5 μl) of the suspension were placed on blood agar plates. The blood agar plates were incubated over night at +37° C. The MMC99 values, i.e. the lowest peptide concentration needed to achieve a 99% reduction of viable bacteria, were recorded (Table 3). The concentration of the bacterial suspension used in the assay was confirmed by viable counts on blood agar plates.
S. aureus (#1800; CCUG, Gothenburg, Sweden) cultured on blood-agar plates [Columbia agar (Oxoid, Basingstoke, UK) supplemented with 5% defibrinated horse blood (National Veterinary Institute (SVA), Uppsala, Sweden)] were transferred to brain heart infusion broth (3.7% BHI; Difco, BD Diagnostics, Franklin Lakes, N.J., USA) and incubated in a shaker at 250 rpm+37° C. over night. The culture was thereafter be diluted 1:10 in fresh BHI broth and incubated for additional two hours to reach log-phase growth. The bacteria were pelleted and suspended in 1% BHI medium (BHI broth diluted 100 times in ultra-pure water) to a final concentration of 10^7 bacteria/ml as estimated by measuring optical density at 600 nm.
Peptides were serially diluted by two-fold steps from 400 μM to 0.78 μM in either 1% BHI medium or in 50% heat inactivated simulated wound fluid [SWF, containing 1 part 0.1% peptone (Oxoid, Basingstoke, UK) in saline and 1 part fetal bovine serum, diluted 2 times in ultra-pure water].
The peptides (100 μl) were thereafter incubated with bacteria (5 μl a 10^7 bact./ml) for 2 hours at +37° C. Drops (5 μl) of the suspension were placed on blood agar plates. The blood agar plates were incubated over night at +37° C. The MMC99 values, i.e. the lowest peptide concentration needed to achieve a 99% reduction of viable bacteria were recorded (Table 6). The concentration of the bacterial suspension used in the assay was confirmed by viable counts on blood agar plates.
The antimicrobial effects of the peptides 232 (SEQ ID NO: 78), and 220 (SEQ ID NO:67) were analysed by MMC99 (minimal microbicidal concentration) assay against S. aureus (CCUG 1800), MRSA (CCUG 41879), P. aeruginosa (ATCC 15442), E. coli (CCUG 31246), S. pyogenes (CCUG 4207), P. acnes (CCUG 1794T), S. epidermidis (ATCC12228), K. pneumoniae (ATCC 13883), A. baumannii (ATCC 19606), and C. albicans (ATCC 64549). The peptides were purchased from Biopeptide Company (San Diego, Calif., USA) and Bachem AG (Bubendorf, Switzerland) and results are presented in Table 8A and 8B respectively.
Peptides were serially diluted in two different assay medium, 1% BHI medium (brain-heart infusion medium) or 50% heat inactivated simulated wound fluid (SWF), and thereafter incubated with the microorganisms for 2 hours. Drops of the suspension were placed on blood agar plates. The MMC99 values, i.e. the lowest peptide concentration needed to achieve a 99% reduction of viable microorganisms, were recorded. As presented in Table 8, all the peptides have the ability to kill microorganisms frequently appearing in infections. […]

In assay [1] the test system is TNF-α production in LPS stimulated THP-1 cells. Description: Inhibition of TNF-α production in LPS stimulated THP-1 cells (ELISA). It is filed as cell-based, human. The conditions noted are these: mean relative secretion, basal = 0%; for TNF-α at 4 μM peptide / TNF-α at 10 μM peptide: stimulated = 100%; for TNF-α at 40 μM peptide: LPS-stimulated level without peptide = 100%. How it is done: After 6 hours of incubation at +37° C., 5% CO2 and in a humid atmosphere, the cell supernatants were collected, centrifuged and kept frozen in −20° C. until analyzed for TNF-α content by ELISA (R&D Systems, Minneapolis, Minn., USA). The results are presented as mean relative secretion (%), with stimulated TNF-α level without peptide added set to 100% and basal secretion set to 0% (Table 2).
After 6 hours of incubation, the cell supernatants were collected, centrifuged, and kept frozen in −20° C. until analyzed for TNF-α content by ELISA (R&D Systems, Minneapolis, Minn., USA). The results are presented as mean relative secretion (%), with stimulated TNF-α level without peptide added set to 100% and basal secretion set to 0% (Table 5).

Setting [2] is: screen 1, 99% reduction of viable bacteria.

With RWCKLWRRLMRKVRRL [Peptide 239], in the assay on S. aureus (CCUG 1800) (screen 2), the “MMC99 μM in 1% BHI medium” value came out at 12.5 µM and the “MMC99 μM in 50% SWF” value is 25 µM. In assay [1] (screen 2), the “TNF-α at 4 μM peptide” value came to 65.6% and the “TNF-α at 10 μM peptide” value came to 56.5%.
As for SQPEATKCFQWQRNMRKVR [Peptide 101], in the assay with S. aureus (CCUG 1800) (setting [2]), the “MMC99 μM in 1% BHI medium” value was over 160 µM. Further, the “TNF-α at 40 μM peptide” value in assay [1] (screen 1) was 116%.
KKLWRRWWRKVL [Peptide 244]: in the assay on S. aureus (CCUG 1800) (screen 2), the “MMC99 μM in 1% BHI medium” value came out at 12.5 µM and the “MMC99 μM in 50% SWF” value was 50 µM. For the same sequence, in assay [1] (screen 2), the “TNF-α at 4 μM peptide” value stood at 107.7%, the “TNF-α at 10 μM peptide” value amounted to 116.7% and the “TNF-α at 40 μM peptide” value was 10.7%.
Turning to CFQWQKRMKRVK [Peptide 148], the “MMC99 μM in 1% BHI medium” value in the assay with S. aureus (CCUG 1800) (setting [2]) was 20 µM. Besides, the “TNF-α at 40 μM peptide” value in assay [1] (screen 1) stood at 132%.
As for WCRWLRKMVKAL [Peptide 248], in the assay on S. aureus (CCUG 1800) (screen 2), the “MMC99 μM in 1% BHI medium” value amounted to 25 µM and the “MMC99 μM in 50% SWF” value is 50 µM. In assay [1] (screen 2), the “TNF-α at 4 μM peptide” value is 87.1%, the “TNF-α at 10 μM peptide” value was found to be 80.2% and the “TNF-α at 40 μM peptide” value is 24.2%.
As for “QTEADKCFQWQRNMRKVR [Peptide 106] (QNEADKCFQWQRNMRKVR)”, the “MMC99 μM in 1% BHI medium” value with S. aureus (CCUG 1800) (setting [2]) came to 160 µM. The “TNF-α at 40 μM peptide” value in assay [1] (screen 1) was 96%.
Regarding QSLATKLFQWLRNLRKVR [Peptide 114], the “MMC99 μM in 1% BHI medium” value with S. aureus (CCUG 1800) (setting [2]) came to 2.5 µM. The “TNF-α at 40 μM peptide” value in assay [1] (screen 1) is 15%.

(Values after patent publication US20140031296A1, “NEW SYNTHETIC PEPTIDES AND THEIR USE” (PERGAMUM AB, priority 2011, published 2014).)
